These are literature values, as cited in US20210154122A1, “TOPICAL COMPOSITION” (OTSUKA PHARMACEUTICAL CO., LTD., priority 2017, published 2021).

For the data set, the system named is keratocytes. The conditions noted are these: keratocytes treated with uridine; disclosed in Patent Document 5 (JP 2009-517380 A).

Structures are written as SMILES.

For the molecule `O=c1ccn([C@@H]2O[C@H](CO)[C@@H](O)[C@H]2O)c(=O)[nH]1` [uridine], the hyaluronic acid production entry is recorded as “promoted”.
